Results as given in patent US11058686B2, “5-(pyrimidin-4-yl)-2-(pyrrolidin-1-yl)nicotinonitrile compounds as IKKE, TBK1 and/or SIK2 kinases inhibitors” (DOMAINEX LIMITED, priority 2017, dated 2021).
Like-named read-outs stand apart in the source and are kept apart here.

Legend:
[1] = Human hepatocyte (liver cell) stability; format: in vitro ADME; details: intrinsic clearance, cryopreserved pooled human hepatocytes, 3 μM compound, 0-60 min; for Human Heps (μL/min/10^6 cells): Table 5, comparative examples; for Human hepatocyte stability (μL/min/10^6 cells): Table 4
Experimental: Commercially available cryopreserved pooled human hepatocytes were purchased and stored in liquid nitrogen prior to use. Williams E media supplemented with 2 mM L-glutamine and 25 mM HEPES and the appropriate test compound (final substrate concentration 3 μM; final DMSO concentration 0.25%) were pre-incubated at 37° C. prior to the addition of a suspension of cryopreserved human hepatocytes (final cell density 0.5×10^6 viable cells/mL in Williams E media supplemented with 2 mM L-glutamine and 25 mM HEPES) to initiate the reaction. The final incubation volume is 500 μL. Two control compounds were included in each test alongside the vehicle control, typically verapamil and umbelliferone.
The reactions were stopped after 0 min, 5 min, 20 min, 40 min and 60 min by transferring 50 μL of the incubate to 100 μL methanol containing an internal standard. The termination plates were subsequently centrifuged at 2500 rpm at 4° C. to precipitate the protein. Following protein precipitation the sample supernatants are combined in cassettes of up to 4 compounds and analysed by LC-MS/MS conditions.
The In peak area ratio (compound peak area/internal standard peak area) was plotted against time and the gradient of the line determined. Elimination rate constant (k)=−(gradient) Half life(t1/2)(min)=0.693/k V(μL/10^6 cells)=Incubation volume (μL)/number of cells in incubation (×10^6) Intrinsic Clearance(Clint)(μL/min/million cells)=V×0.693/t1/2
If the two control compounds are not within historical specified limits then the results are rejected and the experiment repeated.

[2] = Pharmacokinetic evaluation in female Balb-C mice after intravenous administration; format: in vivo; details: for Vd: Vd at steady state; for t½ / half-life: terminal half life in plasma (estimated); for half-life: read-out: t½ (converted)
Experimental: Pharmacokinetic evaluation was performed in female Balb-C mice. For intravenous administration (IV) compounds were typically dosed at 0.5 mg/Kg in a dose volume of 5 mL/Kg via the tail vein. Compounds were typically dosed in a vehicle of 5% DMSO/95% (Kelptose 20% w/v in phosphate buffered saline (PBS) pH 7.4). Other dosing vehicles known to those skilled in the art can also be used.
Blood samples were taken by cardiac puncture under terminal anaesthesia (isoflurane) at 8 time points between 1 minute and 10 hours following IV administration, typically 1 min, 5 min, 15 min, 30 min, 1 h, 3 h, 6 h and 10 h post dosing. In some instances 2 h, 4 h and 8 h were used for the final 3 time points due to greater convenience. N=3 animals were used per time point. Plasma was immediately obtained by centrifugation, and the resulting samples frozen until analysis. Samples, along with a calibration curve prepared by spiking the compounds into control plasma, were subsequently prepared for quantitative analysis by precipitation of the plasma proteins with acetonitrile. Analysis was by ultra-high performance liquid chromatography (Agilent 1290 system) coupled to time-of-flight mass spectrometry, using electrospray ionisation (Agilent 6550 system). Pharmacokinetic parameters were determined by non-compartmental analysis of mean concentration data using Phoenix WinNonlin v6.4
The volume of distribution (Vd) is the theoretical volume into which a drug appears to be distributed assuming it is present at the same concentration everywhere as it is in plasma.
The Vd at steady state (Vdss) is calculated by multiplying the clearance (Cl) by the mean residence time (MRT). Clearance is measured by dividing the dose by the Area under the concentration time curve. Cl=Dose/AUC0-∞ Vdss=Cl×MRT
The mean residence time is calculated by dividing the area under the second moment curve (AUMC) by the area under the concentration time curve (AUC). The second moment curve can be generated by plotting […] MRT=AUMC/AUC (ii) t1/2 in Mice (Estimated)
The compound half life (t1/2) is the time for the concentration of the drug to halve in the plasma. The terminal half life was typically estimated from the gradient of a log concentration/time plot using the last 3 points. Both the Cl and the Vd contribute to the observed half life. A larger Vd and smaller Cl gives a longer t1/2.

TBK1 = molecular target: T1, TBK1 (Homo sapiens, UniProt Q9UHD2); assay: TBK1 enzyme potency, time-resolved fluorescence Lanthascreen kinase assay; format: biochemical; details: IC50 at apparent Km for ATP (20 μM), 2.5 h reaction; read-out: Inhibition of TBK1
T1 sequence (Q9UHD2 1-729): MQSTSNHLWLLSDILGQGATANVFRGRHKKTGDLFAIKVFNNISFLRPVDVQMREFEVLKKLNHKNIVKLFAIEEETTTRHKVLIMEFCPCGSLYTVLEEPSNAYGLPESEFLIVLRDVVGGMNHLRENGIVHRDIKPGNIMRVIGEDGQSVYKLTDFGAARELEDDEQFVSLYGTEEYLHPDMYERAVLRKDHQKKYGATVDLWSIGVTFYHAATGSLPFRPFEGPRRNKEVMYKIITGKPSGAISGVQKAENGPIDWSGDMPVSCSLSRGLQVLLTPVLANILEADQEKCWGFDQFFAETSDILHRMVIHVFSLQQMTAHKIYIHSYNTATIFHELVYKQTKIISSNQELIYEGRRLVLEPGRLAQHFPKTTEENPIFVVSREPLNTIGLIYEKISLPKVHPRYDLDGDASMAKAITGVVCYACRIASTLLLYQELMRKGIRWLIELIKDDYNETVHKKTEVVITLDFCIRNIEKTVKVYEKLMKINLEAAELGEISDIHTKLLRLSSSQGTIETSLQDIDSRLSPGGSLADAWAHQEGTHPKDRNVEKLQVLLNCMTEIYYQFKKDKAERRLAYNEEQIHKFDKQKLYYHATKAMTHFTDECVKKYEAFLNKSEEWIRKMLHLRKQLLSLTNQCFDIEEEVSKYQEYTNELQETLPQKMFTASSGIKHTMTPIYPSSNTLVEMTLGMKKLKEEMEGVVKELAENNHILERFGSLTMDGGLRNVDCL
Experimental: (§1) Compounds of the invention (synthesised as described above), and Comparative Examples 1 to 5 (which may be synthesised as described in WO 2014/128486), were tested for potency against the IKKε and TBK1 enzyme as follows:
(§2) Inhibition studies were performed using a time-resolved fluorescence-based Lanthascreen™ assay. Phosphorylation of a fluorescein-labelled substrate peptide is measured using terbium-labeled phosphospecific antibodies. Terbium is excited at 340 nm and the FRET energy transfer to fluorescein is measured at 495 and 520 nm. The emission ratio between 520 and 495 is a measure of the level of phosphorylation of the substrate by the kinase.
(§3) Kinase inhibition assays (5 μL) were performed at 20° C. in 384-well plate format. Compound IC50 values were determined at the apparent Km for ATP (20 μM) based on a […] assay (Invitrogen) using 8 or 10 point curves in duplicate. The final reaction conditions contained 380 nM fluorescein-IkBα substrate (DRHDSGLDSMKDE) [SEQ ID No 1], 20 μM ATP, 0.9-3 nM IKKε or or 6-8 nM TBK1 kinase respectively, and 1% DMSO in kinase assay buffer consisting of 50 mM HEPES (pH 7.5), 10 mM MgCl2, 1 mM EGTA, 0.05% Brij-35.
(§4) Compound dilutions were prepared from 10 mM DMSO stocks by dilution into DMSO. Compound dilution series were further diluted in kinase assay buffer to give a 5% DMSO stock, the final concentration in the assay being 1% DMSO.
(§5) The kinase phosphorylation assay was initiated by the addition of the kinase and the reaction was allowed to proceed for 1 h or 2.5 h for IKKε and TBK1 kinase respectively. Both conditions were within the linearity of the phosphorylation. The reaction was stopped by the addition of 10 mM EDTA, and phosphorylation was detected after a 1 hour incubation with 1.5 nM terbium-labelled antibody against phosphorylation at Serine 32 on the IkBα peptide, both in TR-FRET dilution buffer (Invitrogen).

IKKε = molecular target: T2, IKKε (Homo sapiens, UniProt Q14164); assay: IKKε enzyme potency, time-resolved fluorescence Lanthascreen kinase assay; format: biochemical; details: IC50 at apparent Km for ATP (20 μM), 1 h reaction; read-out: Inhibition of IKKε
T2 sequence (Q14164 1-716): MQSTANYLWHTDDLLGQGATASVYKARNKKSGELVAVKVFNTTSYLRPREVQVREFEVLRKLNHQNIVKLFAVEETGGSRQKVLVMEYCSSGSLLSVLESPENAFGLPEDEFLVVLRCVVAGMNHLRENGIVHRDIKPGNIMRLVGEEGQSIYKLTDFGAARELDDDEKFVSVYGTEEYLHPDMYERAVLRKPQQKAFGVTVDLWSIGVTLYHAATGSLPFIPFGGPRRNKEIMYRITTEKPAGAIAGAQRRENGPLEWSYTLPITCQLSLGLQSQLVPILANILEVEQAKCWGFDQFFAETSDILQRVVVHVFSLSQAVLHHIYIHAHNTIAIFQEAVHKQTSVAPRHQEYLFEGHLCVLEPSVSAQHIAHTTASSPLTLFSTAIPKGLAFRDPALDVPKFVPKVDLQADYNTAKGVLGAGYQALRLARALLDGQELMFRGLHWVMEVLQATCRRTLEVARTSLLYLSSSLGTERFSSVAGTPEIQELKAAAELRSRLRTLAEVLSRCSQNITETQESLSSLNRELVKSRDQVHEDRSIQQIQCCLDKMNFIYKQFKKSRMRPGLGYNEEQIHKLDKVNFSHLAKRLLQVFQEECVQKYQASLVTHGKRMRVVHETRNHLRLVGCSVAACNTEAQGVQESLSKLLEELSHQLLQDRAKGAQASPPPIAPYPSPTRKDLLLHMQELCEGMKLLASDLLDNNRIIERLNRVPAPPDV
Experimental: as §1, §2, §3, §4, §5

SIK2 = molecular target: T3, SIK2 (Homo sapiens, UniProt Q9H0K1); assay: SIK2 radiolabelled 33P-ATP Kinase HotSpot assay (Reaction Biology Corporation); format: biochemical; details: IC50 at apparent Km for ATP (30 μM), 20 μM peptide substrate; read-out: Inhibition of SIK2
T3 construct: purchased Reaction Biology Corporation
T3 sequence (Q9H0K1 whole entry): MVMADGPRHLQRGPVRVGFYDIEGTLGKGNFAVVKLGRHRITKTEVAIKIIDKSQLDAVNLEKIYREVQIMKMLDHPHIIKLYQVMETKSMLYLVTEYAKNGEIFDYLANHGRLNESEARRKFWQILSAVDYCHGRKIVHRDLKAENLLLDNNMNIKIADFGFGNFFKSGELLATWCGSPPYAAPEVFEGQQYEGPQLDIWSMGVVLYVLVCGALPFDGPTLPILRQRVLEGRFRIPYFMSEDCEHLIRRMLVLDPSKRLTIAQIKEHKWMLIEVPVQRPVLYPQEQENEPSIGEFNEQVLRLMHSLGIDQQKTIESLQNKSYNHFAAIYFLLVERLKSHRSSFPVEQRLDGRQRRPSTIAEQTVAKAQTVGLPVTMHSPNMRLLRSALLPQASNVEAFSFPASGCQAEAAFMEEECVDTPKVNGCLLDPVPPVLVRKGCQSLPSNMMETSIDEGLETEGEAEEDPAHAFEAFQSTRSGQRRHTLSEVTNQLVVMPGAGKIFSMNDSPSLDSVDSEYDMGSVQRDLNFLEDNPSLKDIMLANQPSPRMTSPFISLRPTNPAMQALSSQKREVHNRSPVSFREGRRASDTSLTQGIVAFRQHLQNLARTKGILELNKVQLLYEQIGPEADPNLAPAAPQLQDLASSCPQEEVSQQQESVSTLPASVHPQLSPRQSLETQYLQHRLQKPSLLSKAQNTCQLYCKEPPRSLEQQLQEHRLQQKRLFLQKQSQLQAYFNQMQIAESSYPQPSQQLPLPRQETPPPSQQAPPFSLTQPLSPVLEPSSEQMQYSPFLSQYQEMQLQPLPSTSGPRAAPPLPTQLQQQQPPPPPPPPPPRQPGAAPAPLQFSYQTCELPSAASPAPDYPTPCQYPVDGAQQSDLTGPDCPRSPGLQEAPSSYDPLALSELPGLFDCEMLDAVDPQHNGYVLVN
Experimental: SIK2 was measured using radiolabelled ^33P-ATP using the Kinase HotSpot℠ technology of Reaction Biology Corporation. The peptide AMARAASAALAARRR [SEQ ID No 2] at a concentration of 20 μM was used as the substrate. IC50 values were determined at the apparent Km for ATP (30 μM)

[3] = Table 3, comparative examples, IV typically 0.5 mg/Kg
[4] = Table 2, IV typically 0.5 mg/Kg
[5] = mouse, Table 3, comparative examples, IV typically 0.5 mg/Kg
[6] = mouse, plasma, Table 3, comparative examples, IV typically 0.5 mg/Kg, read-out: Vd

| Human Heps (μL/min/10^6 cells) [1] [μL/min/10^6 cells] | Vd [2, 4] [L/kg] | t½ [2, 4] [min] | Human hepatocyte stability (μL/min/10^6 cells) [1] [μL/min/10^6 cells] | IC50 (TBK1) [nM] | IC50 (IKKε) [nM] | half-life [2, 5] [min] | SMILES | further results |
| --- | --- | --- | --- | --- | --- | --- | --- | --- |
| 48 |  |  |  |  |  |  | CN1CCN(c2ccc(Nc3nccc(-c4cnc(N5CC[C@H](F)C5)c(C#N)c4)n3)cn2)CC1 [Comp. Ex. 3] |  |
|  | 5.6 | 132 | 8 | 20 | 21 |  | CCN1CCN(Cc2ccc(Nc3nccc(-c4cnc(N5CC[C@@H](F)C5)c(C#N)c4)n3)cn2)CC1 [Ex. No. 2, 5-{2-[6-(4-Ethyl-piperazin-1-ylmethyl)-pyridin-3-ylamino]-pyrimidin-4-yl}-2-((R)-3-fluoro-pyrrolidin-1-yl)-nicotinonitrile] |  |
|  | 4.6 | 144 | 7 | 17 | 24 |  | CN1CCN(Cc2ccc(Nc3nccc(-c4cnc(N5CC[C@H](F)C5)c(C#N)c4)n3)cn2)CC1 [Ex. No. 3, 2-((S)-3-Fluoro-pyrrolidin-1-yl)-5-{2-[6-(4-methyl-piperazin-1-ylmethyl)-pyridin-3-ylamino]-pyrimidin-4-yl}-nicotinonitrile] |  |
|  | 3.3 | 102 | 11 | 9 | 16 |  | CCN1CCN(Cc2ccc(Nc3nccc(-c4cnc(N5CC[C@H](F)C5)c(C#N)c4)n3)cn2)CC1 [Ex. No. 1, 5-{2-[6-(4-Ethyl-piperazin-1-ylmethyl)-pyridin-3-ylamino]-pyrimidin-4-yl}-2-((S)-3-fluoro-pyrrolidin-1-yl)-nicotinonitrile] | IC50 (SIK2): 7 nM |

Second part, the molecule before the results:

| SMILES | Human Heps (μL/min/10^6 cells) [1] [μL/min/10^6 cells] | Vd [2, 4] [L/kg] | t½ [2, 4] [min] | Human hepatocyte stability (μL/min/10^6 cells) [1] [μL/min/10^6 cells] | IC50 (TBK1) [nM] | IC50 (IKKε) [nM] | half-life [2, 5] [min] | further results |
| --- | --- | --- | --- | --- | --- | --- | --- | --- |
| N#Cc1cc(-c2ccnc(Nc3ccc(CN4CCNC(=O)C4)nc3)n2)cnc1N1CC[C@H](F)C1 [Comp. Ex. 2] | ≤6 |  |  |  |  |  |  | Vd [2, 3]: 0.74 L/kg; t½ [2, 3]: 40.8 min |
| N#Cc1cc(-c2ccnc(Nc3ccc(CN4CCOCC4)nc3)n2)cnc1N1CC[C@H](F)C1 [Comp. Ex. 1] | 13 |  |  |  |  |  | 30 | Vd [2, 6]: 0.3 L/kg |
| N#Cc1cc(-c2ccnc(Nc3ccc(NC(=O)CN4CCOCC4)nc3)n2)cnc1N1CC[C@H](F)C1 [Comp. Ex. 4] | 6 |  |  |  |  |  | 30 | Vd [2, 3]: 0.54 L/kg |
| N#Cc1cc(-c2ccnc(Nc3ccnc(NC(=O)CN4CCOCC4)c3)n2)cnc1N1CC[C@H](F)C1 [Comp. Ex. 5] | 6 |  |  |  |  |  | 42 | Vd [2, 6]: 0.7 L/kg |
